Experimental data reported in patent US20230277553A1, “THERAPEUTIC COMPOSITION OF CURE-PRO COMPOUNDS FOR TARGETED DEGRADATION OF BET DOMAIN PROTEINS, AND METHODS OF MAKING AND USAGE” (CORNELL UNIVERSITY, priority 2020, published 2023).
“Also recorded” adds a separate entry of the source.

Tests used:
[1] = test system: MV-4-11 cells; experiment: CellTiter-Glo cell viability, MV-4-11 cells; type: cell-based
Procedure: CellTiter-Glo® 2.0 Cell Viability Assay (Promega) was carried out following the manufacturer's recommendations. Cells were seeded at a density of 1000 cells/well in a white 96 well plates (Corning, #3917) in a total volume of 100 μl with respective monomers, combinations of BRD ligands together with E3 ligase ligands or vehicle control treatment. After a 72 h incubation, 100 ul of the CellTiter-Glo® substrate was added per well and luminescence was read on a Spectramax M5 (Molecular Devices). Dose-response curves were generated using Graphpad Prism software.
MV-4-11 cells (5×104) were treated for 24 hours with the sample compounds solubilized in DMSO. The compounds were added at 1 nM-100 μM each. Cellular viability was determined using the CellTiter-Glo® Luminescent Cell Viability Assay (Promega) described above. FIGS. 19-22 depict the CURE-PRO-mediated loss of cellular viability for BRD monomers (JQ1 derivatives comprising of catechol linkers), and CRBN ligand, 8049 (pomalidomide derivatives comprising boronic acid linkers) combined in a 1:1 ratio.
MV-4-11 cells (1×104) were treated for 72 hours with the compounds solubilized in DMSO. Compounds were added at 10 nM-100 μM each. Cellular viability was determined using the CellTiter-Glo® Luminescent Cell Viability Assay (Promega) described above. FIGS. 47-54 depict the CURE-PRO-mediated loss of cellular viability for BRD monomers (JQ1 derivatives comprising of boronic acid linkers), and CRBN ligands, 8046, 8047 and 8066 (pomalidomide derivatives comprising diol linkers) combined in a 1:1 ratio.

[2] = target: T1, BRD3 (Homo sapiens, UniProt Q15059); experiment: CURE-PRO-mediated BRD3 degradation with MDM2 ligands, Western blot, HCT116 cells; type: cell-based; settings: HCT116, 24 h, 1:1, 10 μM
T1 construct: endogenous in cells; host or cells: HCT116
Description: (§1) Anti-BRD4 (13440, 1:1,000 dilution for Western Blot and 1:25 dilution for ProteinSimple); Anti-BRD2 (5848 1:1,000 dilution for Western Blot and 1:25 dilution for ProteinSimple); β-Actin (3700, 1:2,000 dilution for Western Blot), β-Actin (4970, 1:50 dilution for ProteinSimple) anti-mouse IgG-HRP, and anti-rabbit IgG-HRP antibodies were purchased Cell Signaling Technology. Anti-GAPDH (600-401-A33, 1:100 dilution for ProteinSimple) was purchased from Rockland Immunochemicals, Inc. Anti-BRD3 (sc-81202, 1:200 dilution for Western Blot) was purchased from Santa Cruz Biotechnology.
(§2) HeLa, MCF7, or HCT116 cells (2.5-3×10^6) were treated for 24 hours with the indicated compounds solubilized in DMSO. The cells were washed in ice-cold PBS and were then lysed in RIPA lysis buffer (150 mM NaCl, 5 mM EDTA, 1% NP-40, 0.5% sodium deoxycholate, 0.1% SDS, 50 mM Tris, pH 8.0.) with Roche protease inhibitor complete cocktail and phosphatase inhibitors (10 mM sodium fluoride, 10 mM sodium pyrophosphate, 1 mM sodium orthovanadate and 20 mM β-glycerophosphate). The total protein concentrations were determined by Bradford Protein Assay and 10-20 μg of protein was loaded onto 4-15% Tris-Glycine gradient gels (Biorad). […] Signal was detected with ECL Western Blotting Substrate (Pierce) and X-ray film processed with a Konica SRX-101 X-ray film processor or captured by Bio-Rad's Chemidoc Imaging system. […]

[3] = target: T2, BRD2 (Homo sapiens, UniProt P25440); experiment: CURE-PRO-mediated BRD2 degradation with MDM2 ligands, Western blot, HCT116 cells; type: cell-based; settings: HCT116, 24 h, 1:1, 10 μM
T2 construct: endogenous in cells; host or cells: HCT116
Description: as §1, §2

[4] = test system: SLC19A1; experiment: Suppression of c-MYC downstream target gene SLC19A1, RT-PCR (Cells-to-Ct), HeLa cells; type: cell-based, Human; settings: 24 h, 10 μM each
Procedure: The suppression of the expression of the downstream c-MYC target, SLC19A1, was measured by RT-PCR using Power SYBR© Green Cells-to-Ct™ Kit (Life Technologies). Adherent cells were plated on 96 well plates at 5,000 cells per well were treated for 24h with monomer compounds and compounds capable of reversible interactions (1 nM-100 μM). Cells were subsequently washed in ice-cold PBS processed according to the manufacturer's instructions. Quantitative real-time PCR was performed using a ViiA™ 7 Real-time PCR System (Applied Biosystems, Foster City, Calif., USA). GAPDH and ACTB served as internal controls. The primers used were (5′-3′): GAPDH-F: AGCCACATCGCTCAGACAC (SEQ ID NO:9), GAPDH-R: GCCCAATACGACCAAATCC (SEQ ID NO:10), ACTB —F: CCAACCGCGAGAAGATGA (SEQ ID NO: 11), ACTB -R: […] (SEQ ID NO: 12), SLC19A1-F: […] (SEQ ID NO:13), SLC19A1-R: […] (SEQ ID NO: 14).
HeLa cells (1×104) were treated for 24 hours in 96 well plates with the compounds solubilized in DMSO. Compounds were added at 10 μM each and RNA expression measured by the Cells-to Ct method described above (Thermofisher). CURE-PRO-mediated suppression of the downstream target gene of c-MYC, SLC19A1, after BRD4 degradation was evident in cells treated with the combination of BRD-N25 and 8310 or 8312 (FIG. 66) and BRD-N39 and 8310 and 8312 (FIG. 67) as indicated by a rightward shift in the curve and in increase in the Ct values.

[5] = target: BRD4 (Homo sapiens, UniProt O60885); experiment: CURE-PRO-mediated BRD4 degradation with MDM2 ligands, Western blot, HCT116 cells; type: cell-based; parameters: endogenous in cells; settings: for BRD4 degradation, in combination with MDM2 ligands 8310 and 8312 (Western blot): HCT116, 24 h, 1:1, 10 μM; for Selectivity of degradation within the BRD protein family, with MDM2 ligands: HCT116, Western blot, with 8310 / 8312
Description: as §1
HeLa, MCF7, or HCT116 cells (2.5-3×10^6) were treated for 24 hours with the indicated compounds solubilized in DMSO. The cells were washed in ice-cold PBS and were then lysed in RIPA lysis buffer (150 mM NaCl, 5 mM EDTA, 1% NP-40, 0.5% sodium deoxycholate, 0.1% SDS, 50 mM Tris, pH 8.0.) with Roche protease inhibitor complete cocktail and phosphatase inhibitors (10 mM sodium fluoride, 10 mM sodium pyrophosphate, 1 mM sodium orthovanadate and 20 mM β-glycerophosphate). The total protein concentrations were determined by Bradford Protein Assay and 10-20 μg of protein was loaded onto 4-15% Tris-Glycine gradient gels (Biorad). After standard gel electrophoresis, the separated proteins were transferred to PVDF membrane by wet transfer. The immunoblots were then blocked for 1 hour in 5% skim milk in TBST or 5% BSA in TBST, according to manufacturer's instructions, before an overnight incubation at 4° C. with indicated antibodies and membranes. Membranes were then incubated with the appropriate horseradish peroxidase-conjugated secondary antibodies (1:5,000 dilution) for 1 h at room temperature and the bands were visualized using the Clarity Max Western ECL Substrate (Biorad) and the ChemiDoc Imaging System (Biorad). Signal was detected with ECL Western Blotting Substrate (Pierce) and X-ray film processed with a Konica SRX-101 X-ray film processor or captured by Bio-Rad's Chemidoc Imaging system.
HCT116 cells (3×10^6) were treated for 24 hours with the compounds solubilized in DMSO. Compounds were added at 100 nM-10 μM each. Standardized protein samples were electrophoresed and imaged as described in the Immunoblotting section above. FIGS. 64 and 65 depict the concentration-dependence of CURE-PRO-mediated BRD2 and BRD3 degradation using MDM2 ligands.

T1 sequence (Q15059 whole entry): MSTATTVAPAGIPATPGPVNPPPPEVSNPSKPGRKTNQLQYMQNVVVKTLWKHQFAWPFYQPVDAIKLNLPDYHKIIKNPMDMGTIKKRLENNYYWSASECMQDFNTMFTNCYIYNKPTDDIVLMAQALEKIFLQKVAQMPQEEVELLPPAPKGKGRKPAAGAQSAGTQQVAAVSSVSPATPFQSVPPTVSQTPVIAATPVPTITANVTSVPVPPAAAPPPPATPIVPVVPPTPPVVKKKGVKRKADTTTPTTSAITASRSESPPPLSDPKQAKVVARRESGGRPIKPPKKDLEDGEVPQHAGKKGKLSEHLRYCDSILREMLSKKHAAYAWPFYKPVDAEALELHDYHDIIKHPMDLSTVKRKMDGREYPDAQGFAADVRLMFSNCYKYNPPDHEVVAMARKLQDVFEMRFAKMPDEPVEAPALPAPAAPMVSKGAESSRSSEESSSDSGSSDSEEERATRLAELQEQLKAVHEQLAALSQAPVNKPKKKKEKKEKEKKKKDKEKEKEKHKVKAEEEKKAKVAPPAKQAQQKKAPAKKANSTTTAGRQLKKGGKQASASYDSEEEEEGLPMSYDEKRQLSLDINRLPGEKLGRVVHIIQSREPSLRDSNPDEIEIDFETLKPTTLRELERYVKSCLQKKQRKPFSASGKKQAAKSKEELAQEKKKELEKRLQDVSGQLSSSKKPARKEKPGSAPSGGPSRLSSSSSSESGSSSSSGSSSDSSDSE
T2 sequence (P25440 whole entry): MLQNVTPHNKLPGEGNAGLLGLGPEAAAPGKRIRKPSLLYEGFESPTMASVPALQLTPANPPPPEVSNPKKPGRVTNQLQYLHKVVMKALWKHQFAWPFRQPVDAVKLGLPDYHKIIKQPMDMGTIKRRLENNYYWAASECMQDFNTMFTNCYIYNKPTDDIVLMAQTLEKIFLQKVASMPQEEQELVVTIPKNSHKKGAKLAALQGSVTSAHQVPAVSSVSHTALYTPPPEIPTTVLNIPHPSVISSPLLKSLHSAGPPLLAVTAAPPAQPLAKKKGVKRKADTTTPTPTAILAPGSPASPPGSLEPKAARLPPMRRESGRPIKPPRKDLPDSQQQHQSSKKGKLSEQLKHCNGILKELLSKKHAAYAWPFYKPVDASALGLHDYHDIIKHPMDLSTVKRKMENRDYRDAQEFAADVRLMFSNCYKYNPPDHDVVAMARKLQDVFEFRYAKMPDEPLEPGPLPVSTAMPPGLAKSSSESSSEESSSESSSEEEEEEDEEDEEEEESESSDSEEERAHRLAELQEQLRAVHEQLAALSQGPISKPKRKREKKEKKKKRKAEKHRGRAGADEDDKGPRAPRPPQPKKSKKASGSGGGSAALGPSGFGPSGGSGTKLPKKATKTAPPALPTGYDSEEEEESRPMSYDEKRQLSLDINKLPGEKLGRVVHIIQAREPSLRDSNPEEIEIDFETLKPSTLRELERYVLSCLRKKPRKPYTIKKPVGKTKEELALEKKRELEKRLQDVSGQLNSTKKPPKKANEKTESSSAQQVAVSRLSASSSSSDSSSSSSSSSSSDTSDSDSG

Row | Compound | Loss of cellular viability / toxicity, co-dosed with CRBN ligand 8049 ([1]; MV-4-11, 24 hours, 1:1 with 8049, 1 nM-100 μM each) | BRD3 degradation, in combination with MDM2 ligands 8310 and 8312 [2] | BRD2 degradation, in combination with MDM2 ligands 8310 and 8312 [3] | Suppression of SLC19A1 expression, combination with 8310 [4] | Suppression of SLC19A1 expression, combination with 8312 [4] | BRD4 degradation, in combination with MDM2 ligands 8310 and 8312 (Western blot) [5] | Selectivity of degradation within the BRD protein family, with MDM2 ligands [5] | Loss of cellular viability / toxicity, cotreated with cereblon ligands 8046, 8047 and 8066 vs monomers alone ([1]; MV-4-11, 72 hours, 1:1, 10 nM-100 μM each)
1 | CCNC(=O)C[C@@H]1N=C(c2ccc(Cl)cc2)c2cc(OCCNC(=O)c3cccc(O)c3O)ccc2-n2c(C)nnc21 [BRD-N25] | concentration-dependent loss in cellular viability; also recorded: increased toxicity | degradation of BRD3; also recorded: Degradation is evident | BRD2 to a lesser extent; also recorded: Degradation is evident | evident | evident; also recorded: suppressed more substantially | caused BRD4 degradation; also recorded: Degradation is evident | some selectivity for BRD3 and BRD4 over BRD2 for 8310 | 
2 | CCNC(=O)C[C@@H]1N=C(c2ccc(Cl)cc2)c2cc(OCCOCCNC(=O)c3cccc(O)c3O)ccc2-n2c(C)nnc21 [BRD-N39, N-(2-(2-(((4S)-6-(4-chlorophenyl)-4-(2-(ethylamino)-2-oxoethyl)-1-methyl-4H-benzo[f][1,2,4]triazolo[4,3-a][1,4]diazepin-8-yl)oxy)ethoxy)ethyl)-2,3-dihydroxybenzamide] |  | degradation of BRD3; also recorded: Degradation is evident | BRD2 to a lesser extent; also recorded: Degradation is evident | evident; also recorded: suppression to levels comparable to that of JQ1 treatment | Complete suppression of SLC19A1 was evident; also recorded: completely suppressed | caused BRD4 degradation; also recorded: Degradation is evident | some selectivity for BRD4 over BRD2 and BRD3 | 
3 | CCNC(=O)C[C@@H]1N=C(c2ccc(Cl)cc2)c2cc(OCCCCC(=O)Nc3cccc(B(O)O)c3)ccc2-n2c(C)nnc21 [BRD-E20, (3-(5-(((4S)-6-(4-chlorophenyl)-4-(2-(ethylamino)-2-oxoethyl)-1-methyl-4H-benzo[f][1,2,4]triazolo[4,3-a][1,4]diazepin-8-yl)oxy)pentanamido)phenyl)boronic acid] |  |  |  |  |  |  |  | reduced viability; also recorded: increased toxicity
